# According to patent publication US12258365B2, “Organophosphorus-substituted compounds as c-MET inhibitors and therapeutic uses thereof” (BETA PHARMA, INC., priority 2018, dated 2025):
# Molecular target: c-MET (Homo sapiens, UniProt P08581)
# Assay: Biochemical kinase assay (33P-ATP, filter-binding)
# Details: radiometric 33P-ATP filter-binding kinase reaction, 20 min preincubation, 2 hours at room temperature
# Description: Reaction Buffer: 20 mM Hepes (pH 7.5), 10 mM MgCl2, 1 mM EGTA, 0.02%, Brij35, 0.02 mg/mL BSA, 0.1 mM Na3VO4, 2 mM DTT and 1% DMSO.
# Required cofactors were added individually to each kinase reaction.
# The testing compounds were dissolved in 100% DMSO to specific concentration. The serial dilution was conducted by Integra Viaflo Assist in DMSO.
# • 1. Prepare substrate in freshly prepared Reaction Buffer. • 2. Deliver any required cofactors to the substrate solution above. • 3. Deliver kinase into the substrate solution and gently mix. • 4. Deliver compounds in 100% DMSO into the kinase reaction mixture by Acoustic technology (Echo550; nanoliter range), incubate for 20 min at room temp. • 5. Deliver ^33P-ATP (Specific activity 10 μCi/μL) into the reaction mixture to initiate the reaction. • 6. Incubate for 2 hours at room temperature. • 7. Detect radioactivity by filter-binding method. • 8. Kinase activity data were expressed as the percent remaining kinase activity in test samples compared to vehicle (DMSO) reactions. IC50 values and curve fits were obtained using Prism (GraphPad Software) (Table 1).
# Chain of c-MET (P08581 25-1390): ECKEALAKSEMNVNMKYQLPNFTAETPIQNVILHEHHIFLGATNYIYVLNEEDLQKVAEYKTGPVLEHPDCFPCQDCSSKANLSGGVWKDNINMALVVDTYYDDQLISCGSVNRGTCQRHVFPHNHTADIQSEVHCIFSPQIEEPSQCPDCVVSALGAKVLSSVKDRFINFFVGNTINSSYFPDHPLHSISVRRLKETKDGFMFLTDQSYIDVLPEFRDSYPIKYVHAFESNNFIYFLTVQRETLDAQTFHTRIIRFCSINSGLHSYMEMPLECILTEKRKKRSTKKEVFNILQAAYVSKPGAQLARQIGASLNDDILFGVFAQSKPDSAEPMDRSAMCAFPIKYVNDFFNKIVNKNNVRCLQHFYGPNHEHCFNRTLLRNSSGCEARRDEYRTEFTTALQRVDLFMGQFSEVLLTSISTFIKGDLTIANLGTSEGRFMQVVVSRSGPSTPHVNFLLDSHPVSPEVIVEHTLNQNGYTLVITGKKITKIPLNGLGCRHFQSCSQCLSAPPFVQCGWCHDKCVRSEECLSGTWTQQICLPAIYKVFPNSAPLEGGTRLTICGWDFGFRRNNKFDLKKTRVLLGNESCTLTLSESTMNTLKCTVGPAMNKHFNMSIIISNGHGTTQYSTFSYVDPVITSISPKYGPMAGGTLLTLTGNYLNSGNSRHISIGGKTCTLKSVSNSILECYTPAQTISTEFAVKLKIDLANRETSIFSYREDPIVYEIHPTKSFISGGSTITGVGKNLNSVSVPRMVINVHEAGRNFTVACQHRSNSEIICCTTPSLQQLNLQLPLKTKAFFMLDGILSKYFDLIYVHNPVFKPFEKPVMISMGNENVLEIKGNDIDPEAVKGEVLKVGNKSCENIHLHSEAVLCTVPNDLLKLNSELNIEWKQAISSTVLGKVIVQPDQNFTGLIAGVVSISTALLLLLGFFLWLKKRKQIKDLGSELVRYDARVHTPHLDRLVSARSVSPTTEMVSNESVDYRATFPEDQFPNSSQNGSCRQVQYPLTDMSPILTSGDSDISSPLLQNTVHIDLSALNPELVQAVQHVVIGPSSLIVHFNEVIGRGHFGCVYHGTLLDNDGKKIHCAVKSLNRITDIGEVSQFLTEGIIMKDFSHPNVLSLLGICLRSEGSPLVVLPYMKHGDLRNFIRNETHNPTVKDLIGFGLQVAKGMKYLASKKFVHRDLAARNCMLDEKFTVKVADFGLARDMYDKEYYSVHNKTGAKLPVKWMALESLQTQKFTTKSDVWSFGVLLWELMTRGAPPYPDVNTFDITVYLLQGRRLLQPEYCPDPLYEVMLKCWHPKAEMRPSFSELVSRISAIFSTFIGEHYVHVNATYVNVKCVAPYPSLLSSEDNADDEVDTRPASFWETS
smiles,measurement,value
"CP(C)(=O)c1ccc(-c2cnc3nnn(Cc4ccc5ncccc5c4)c3n2)cc1 [Example 1, Dimethyl(4-(1-(quinolin-6-ylmethyl)-1H-[1,2,3]triazolo[4,5-b]pyrazin-6-yl)phenyl)-phosphine oxide]",IC50,< 10 nM
"CCOP(C)(=O)Cc1ccc(-c2cnc3nnn(Cc4ccc5ncccc5c4)c3n2)cc1 (stereo not shown) [Example 2, Ethyl methyl(4-(1-(quinolin-6-ylmethyl)-1H-[1,2,3]triazolo[4,5-b]pyrazin-6-yl)benzyl)-phosphinate]",IC50,< 10 nM
"CP(=O)(O)Cc1ccc(-c2cnc3nnn(Cc4ccc5ncccc5c4)c3n2)cc1 [Example 3, Methyl(4-(1-(quinolin-6-ylmethyl)-1H-[1,2,3]triazolo[4,5-b]pyrazin-6-yl)benzyl)-phosphinic Acid]",IC50,< 10 nM
"CP(C)(=O)c1ccc(-c2cnc3nnn(Cc4ccc5ncccc5c4)c3n2)c(F)c1 [Example 4, (3-Fluoro-4-(1-(quinolin-6-ylmethyl)-1H-[1,2,3]triazolo[4,5-b]pyrazin-6-yl)phenyl)dimethylphosphine oxide]",IC50,11 to 20 nM
"CP(C)(=O)c1ccc(-c2cnc3nnn(Cc4ccc5ncccc5c4)c3n2)cc1F [Example 5, (2-Fluoro-4-(1-(quinolin-6-ylmethyl)-1H-[1,2,3]triazolo[4,5-b]pyrazin-6-yl)phenyl)dimethyl-phosphine Oxide]",IC50,< 10 nM
"CP(C)(=O)c1ccc(-c2cnc3nnn(Cc4ccc5nccn5c4)c3n2)cc1 [Example 6, (4-(1-(Imidazo[1,2-a]pyridin-6-ylmethyl)-1H-[1,2,3]triazolo[4,5-b]pyrazin-6-yl)phenyl)dimethylphosphine Oxide]",IC50,< 10 nM
"CP(C)(=O)c1cccc(-c2cnc3nnn(Cc4ccc5nccn5c4)c3n2)c1 [Example 7, (3-(1-(Imidazo[1,2-a]pyridin-6-ylmethyl)-1H-[1,2,3]triazolo[4,5-b]pyrazin-6-yl)phenyl)-dimethylphosphine Oxide]",IC50,11 to 20 nM
"CP(C)(=O)c1cccc(-c2cnc3nnn(Cc4ccc5ncccc5c4)c3n2)c1 [Example 8, Dimethyl(3-(1-(quinolin-6-ylmethyl)-1H-[1,2,3]triazolo[4,5-b]pyrazin-6-yl)phenyl)phosphine Oxide]",IC50,11 to 20 nM
"CP(C)(=O)Cn1cc(-c2cnc3nnn(Cc4ccc5ncccc5c4)c3n2)cn1 [Example 9, Dimethyl((4-(1-(quinolin-6-ylmethyl)-1H-[1,2,3]triazolo[4,5-b]pyrazin-6-yl)-1H-pyrazol-1-yl)methyl)phosphine Oxide]",IC50,21 to 100 nM
"CP(C)(=O)Cn1cc(-c2cnc3nnn(Cc4ccc5nccn5c4)c3n2)cn1 [Example 10, ((4-(1-(Imidazo[1,2-a]pyridin-6-ylmethyl)-1H-[1,2,3]triazolo[4,5-b]pyrazin-6-yl)-1H-pyrazol-1-yl)methyl)dimethylphosphine Oxide]",IC50,21 to 100 nM
"CP(C)(=O)c1ccc(Nc2cnc3nnn(Cc4ccc5ncccc5c4)c3n2)cc1 [Example 11, Dimethyl(4-((1-(quinolin-6-ylmethyl)-1H-[1,2,3]triazolo[4,5-b]pyrazin-6-yl)amino)phenyl)phosphine Oxide]",IC50,< 10 nM
"CP(C)(=O)c1ccc(Nc2cnc3nnn(Cc4ccc5ncccc5c4)c3n2)cc1F [Example 12, (2-Fluoro-4-((1-(quinolin-6-ylmethyl)-1H-[1,2,3]triazolo[4,5-b]pyrazin-6-yl)amino)phenyl)dimethylphosphine Oxide]",IC50,< 10 nM
"CP(C)(=O)c1cccc(-c2ccc3nnc(C(F)(F)c4ccc5nccn5c4)n3n2)c1 [Example 13, (3-(3-(Difluoro(imidazo[1,2-a]pyridin-6-yl)methyl)-[1,2,4]triazolo[4,3-b]pyridazin-6-yl)phenyl)dimethylphosphine Oxide]",IC50,21 to 100 nM
"CP(C)(=O)c1ccc(-c2ccc3nnc(C(F)(F)c4ccc5nccn5c4)n3n2)cc1 [Example 14, (4-(3-(Difluoro(imidazo[1,2-a]pyridin-6-yl)methyl)-[1,2,4]triazolo[4,3-b]pyridazin-6-yl)phenyl)dimethylphosphine Oxide]",IC50,1000 to 6000 nM
"CC(c1ccc2nccn2c1)n1nnc2ncc(-c3ccc(P(C)(C)=O)cc3)nc21 (stereo not shown) [Example 15, (4-(1-(1-(Imidazo[1,2-a]pyridin-6-yl)ethyl)-1H-[1,2,3]triazolo[4,5-b]pyrazin-6-yl)phenyl)dimethylphosphine Oxide]",IC50,< 10 nM
"CP(C)(=O)c1ccc(-c2cnc3nnn(Cc4ccc5c(c4)CCO5)c3n2)cc1 [Example 16, (4-(1-((2,3-Dihydrobenzofuran-5-yl)methyl)-1H-[1,2,3]triazolo[4,5-b]pyrazin-6-yl)phenyl)dimethylphosphine Oxide]",IC50,11 to 20 nM
"CP(C)(=O)c1ccc(-c2cnc3nnn(Cc4ccc5ncc(F)n5c4)c3n2)cc1 [Example 17, (4-(1-((3-Fluoroimidazo[1,2-a]pyridin-6-yl)methyl)-1H-[1,2,3]triazolo[4,5-b]pyrazin-6-yl)phenyl)dimethylphosphine Oxide]",IC50,21 to 100 nM
"CP(C)(=O)c1cnc2nnn(Cc3ccc4ncccc4c3)c2n1 [Example 18, Dimethyl(1-(quinolin-6-ylmethyl)-1H-[1,2,3]triazolo[4,5-b]pyrazin-6-yl)phosphine Oxide]",IC50,1000 to 6000 nM
"CC(c1ccc2ncccc2c1)n1nnc2ncc(-c3ccc(P(C)(C)=O)cc3)nc21 (stereo not shown) [Example 19, Dimethyl(4-(1-(1-(quinolin-6-yl)ethyl)-1H-[1,2,3]triazolo[4,5-b]pyrazin-6-yl)phenyl)phosphine Oxide]",IC50,< 10 nM
"Cn1cc2cc(Cn3nnc4ncc(-c5ccc(P(C)(C)=O)cc5)nc43)c(F)cc2n1 [Example 20, (4-(1-((6-Fluoro-2-methyl-2H-indazol-5-yl)methyl)-1H-[1,2,3]triazolo[4,5-b]pyrazin-6-yl)phenyl)dimethylphosphine Oxide]",IC50,< 10 nM
"Cn1cc2cc(Cn3nnc4ncc(-c5ccc(P(C)(C)=O)c(F)c5)nc43)c(F)cc2n1 [Example 21, (2-fluoro-4-(1-((6-fluoro-2-methyl-2H-indazol-5-yl)methyl)-1H-[1,2,3]triazolo[4,5-b]pyrazin-6-yl)phenyl)-dimethylphosphine oxide]",IC50,< 10 nM
"Cn1cc2cc(Cn3nnc4ncc(-c5ccc(P(C)(C)=O)c(F)c5)nc43)ccc2n1 [Example 22, (2-Fluoro-4-(1-((2-methyl-2H-indazol-5-yl)methyl)-1H-[1,2,3]triazolo[4,5-b]pyrazin-6-yl)phenyl)dimethylphosphine Oxide]",IC50,< 10 nM
